Results published in paper PMC9865890, “N-Derivatives of (Z)-Methyl 3-(4-Oxo-2-thioxothiazolidin-5-ylidene)methyl)-1H-indole-2-carboxylates as Antimicrobial Agents—In Silico and In Vitro Evaluation” (Pharmaceuticals, 2023).
In brackets after ≈: the same amount, converted by molar mass. Where two headings read alike, the source gives them in different places.

Tests used:
[1] = system: Staphylococcus aureus (ATCC 6538); assay: Antibacterial microdilution (MIC/MBC); type: cell-based; conditions: Staphylococcus aureus, ATCC6538, S.a. (S. aureus); for MIC: read-out: MIC
Procedure, shortened: (§1)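 MIC and MBC values came from a modified broth microdilution method, with ampicillin and streptomycin run alongside as reference drugs.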

[2] = system: Listeria monocytogenes (NCTC 7973); assay: Antibacterial microdilution (MIC/MBC); type: cell-based; conditions: Listeria monocytogenes, NCTC7973, L.m. (L. monocytogenes); for MIC: read-out: MIC
Procedure, shortened: as §1

P. aeruginosa = assay: Antibacterial microdilution (MIC/MBC); type: cell-based; conditions: Pseudomonas aeruginosa, P.a. (P. aeruginosa); for MIC: read-out: MIC
Procedure, shortened: as §1

[3] = system: Salmonella typhimurium (ATCC 13311); assay: Antibacterial microdilution (MIC/MBC); type: cell-based; conditions: Salmonella enterica, S.t. (S. typhimurium); for MIC: read-out: MIC
Procedure, shortened: as §1

[4] = system: Enterobacter cloacae (clinical isolate); assay: Antibacterial microdilution (MIC/MBC); type: cell-based; conditions: Enterobacter cloacae, En.cl (En. cloacae); for MIC: read-out: MIC
Procedure, shortened: as §1

[5] = system: Bacillus cereus (clinical isolate); assay: Antibacterial microdilution (MIC/MBC); type: cell-based; conditions: Bacillus cereus, B.c. (B. cereus); for MIC: read-out: MIC
Procedure, shortened: as §1

[6] = system: Escherichia coli (ATCC 35210); assay: Antibacterial microdilution (MIC/MBC); type: cell-based; conditions: Escherichia coli, ATCC35210, E. coli; for MIC: read-out: MIC
Procedure, shortened: as §1

M. flavus = assay: Antibacterial microdilution (MIC/MBC); type: cell-based; conditions: Micrococcus flavus; M.f. (M. flavus)
Procedure, shortened: as §1

A. ochraceus = assay: Antifungal bioassay (MIC/MFC); type: cell-based; conditions: Aspergillus ochraceus, A.o. (A. ochraceus); for MIC: read-out: MIC
Procedure, shortened: (§2)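 Experiments were run twice for every fungus in the panel.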

P. ochrochloron = assay: Antifungal bioassay (MIC/MFC); type: cell-based; conditions: for MFC: P.o. (P. ochrochloron); for MIC: P.o. (P. ochrochloron; text: P. ochramensis)
Procedure, shortened: as §2

[7] = system: Aspergillus niger (ATCC 6275); assay: Antifungal bioassay (MIC/MFC); type: cell-based; conditions: ATCC6275, A.n. (A. niger)
Procedure, shortened: as §2

[8] = system: Trichoderma viride (IAM 5061); assay: Antifungal bioassay (MIC/MFC); type: cell-based; conditions: T.v. (T. viride)
Procedure, shortened: as §2

[9] = system: Aspergillus versicolor (ATCC 11730); assay: Antifungal bioassay (MIC/MFC); type: cell-based; conditions: ATCC11730, A.v. (A. versicolor)
Procedure, shortened: as §2

[10] = system: Aspergillus fumigatus (ATCC 1022); assay: Antifungal bioassay (MIC/MFC); type: cell-based; conditions: ATCC1022, A.f. (A. fumigatus)
Procedure, shortened: as §2

[11] = system: Penicillium funiculosum (ATCC 36839); assay: Antifungal bioassay (MIC/MFC); type: cell-based; conditions: Talaromyces funiculosus, ATCC36839; P.f. (P. funiculosum)
Procedure, shortened: as §2

[12] = system: Penicillium verrucosum var. cyclopium (food isolate); assay: Antifungal bioassay (MIC/MFC); type: cell-based
[13] = Penicillium ochrochloron, read-out: MIC
[14] = Trichoderma viride, IAM5061, read-out: MIC

Row | SMILES | MBC [1] [µg/mL] | MIC [1] [µg/mL] | MBC [2] [µg/mL] | MIC [2] [µg/mL] | MBC (P. aeruginosa) [µg/mL] | MIC (P. aeruginosa) [µg/mL] | MBC [3] [µg/mL] | MIC [3] [µg/mL] | MBC [4] [µg/mL] | MIC [4] [µg/mL] | MBC [5] [µg/mL] | MIC [5] [µg/mL] | MBC [6] [µg/mL] | MIC [6] [µg/mL] | MBC (M. flavus) [µg/mL] | MIC (M. flavus) [µg/mL] | MFC (A. ochraceus) [µg/mL] | MIC (A. ochraceus) [µg/mL] | MFC (P. ochrochloron; Penicillium ochrochloron) [µg/mL] | MIC (P. ochrochloron; [13]) [µg/mL] | other results
1 | COC(=O)c1[nH]c2ccc(F)cc2c1/C=C1\SC(=S)N(N2CCOCC2)C1=O [Compound 16, (Z)-methyl 5-fluoro-3-((3-morpholino-4-oxo-2-thioxothiazolidin-5-ylidene)methyl)-1H-indole-2-carboxylate] | 30 ± 10 (≈ 71.2 µM) | 22 ± 5 (≈ 52.2 µM) | 60 ± 6 (≈ 142 µM) | 45 ± 3 (≈ 107 µM) | 60 ± 6 (≈ 142 µM) | 30 ± 10 (≈ 71.2 µM) | 60 ± 6 (≈ 142 µM) | 45 ± 3 (≈ 107 µM) | 60 ± 6 (≈ 142 µM) | 45 ± 3 (≈ 107 µM) | 30 ± 10 (≈ 71.2 µM) | 15 ± 9 (≈ 35.6 µM) | 60 ± 6 (≈ 142 µM) | 30 ± 10 (≈ 71.2 µM) | 60 ± 6 (≈ 142 µM) | 45 ± 3 (≈ 107 µM) | 30 ± 10 (≈ 71.2 µM) | 15 ± 3 (≈ 35.6 µM) | 30 ± 10 (≈ 71.2 µM) | 15 ± 3 (≈ 35.6 µM) | MFC [7]: 30 ± 10 µg/mL (≈ 71.2 µM); MIC [7]: 15 ± 3 µg/mL (≈ 35.6 µM); MIC [8]: 8 ± 0.6 µg/mL (≈ 19 µM); MFC ([8]; Trichoderma viride, IAM5061): 15 ± 3 µg/mL (≈ 35.6 µM); MIC [8, 14]: 8 µg/mL (≈ 19 µM); MFC [9]: 30 ± 10 µg/mL (≈ 71.2 µM); MIC [9]: 15 ± 3 µg/mL (≈ 35.6 µM); MFC [10]: 30 ± 10 µg/mL (≈ 71.2 µM); MIC [10]: 15 ± 3 µg/mL (≈ 35.6 µM); MFC [11]: 30 ± 10 µg/mL (≈ 71.2 µM); MIC [11]: 15 ± 3 µg/mL (≈ 35.6 µM); melting point: 273 to 274 °C; MFC [12]: 30 ± 10 µg/mL (≈ 71.2 µM); MIC [12]: 15 ± 3 µg/mL (≈ 35.6 µM)
2 | COC(=O)c1[nH]c2ccc(F)cc2c1/C=C1\SC(=S)N(C)C1=O [Compound 15, (Z)-methyl 5-fluoro-3-((3-methyl-4-oxo-2-thioxothiazolidin-5-ylidene)methyl)-1H-indole-2-carboxylate] | 30 ± 10 (≈ 85.6 µM) | 22 ± 5 (≈ 62.8 µM) | 60 ± 6 (≈ 171 µM) | 45 ± 3 (≈ 128 µM) | 60 ± 6 (≈ 171 µM) | 30 ± 10 (≈ 85.6 µM) | 60 ± 6 (≈ 171 µM) | 45 ± 3 (≈ 128 µM) | 60 ± 6 (≈ 171 µM) | 30 ± 10 (≈ 85.6 µM) | 60 ± 6 (≈ 171 µM) | 30 ± 10 (≈ 85.6 µM) | 60 ± 6 (≈ 171 µM) | 45 ± 3 (≈ 128 µM) | 60 ± 6 (≈ 171 µM) | 45 ± 3 (≈ 128 µM) | 15 ± 3 (≈ 42.8 µM) | 8 ± 0.6 (≈ 22.8 µM) | 15 ± 3 (≈ 42.8 µM) | 8 (≈ 22.8 µM) | MIC (P. ochrochloron): 8 ± 0.6 µg/mL (≈ 22.8 µM); MFC [7]: 15 ± 3 µg/mL (≈ 42.8 µM); MIC [7]: 8 ± 0.6 µg/mL (≈ 22.8 µM); MIC [8]: 8 ± 0.6 µg/mL (≈ 22.8 µM); MFC ([8]; Trichoderma viride, IAM5061): 15 ± 3 µg/mL (≈ 42.8 µM); MIC [8, 14]: 8 µg/mL (≈ 22.8 µM); MFC [9]: 15 ± 3 µg/mL (≈ 42.8 µM); MIC [9]: 8 ± 0.6 µg/mL (≈ 22.8 µM); MFC [10]: 30 ± 10 µg/mL (≈ 85.6 µM); MIC [10]: 15 ± 3 µg/mL (≈ 42.8 µM); MFC [11]: 15 ± 3 µg/mL (≈ 42.8 µM); MIC [11]: 8 ± 0.6 µg/mL (≈ 22.8 µM); melting point: 234 to 244 °C; MFC [12]: 15 ± 3 µg/mL (≈ 42.8 µM); MIC [12]: 8 ± 0.6 µg/mL (≈ 22.8 µM)
